Measured values from a melting point compilation (Tetko et al.; mined from patent text by program, amines drawn as free bases though some values may be those of a salt).
Non-standard residues stand in square brackets, D forms with d. Residues, ends and D or L forms follow the SMILES beside them. *: point of attachment. Npys = O=[N+]([O-])c1cccnc1S*; Mpa = O=C(O)CCS

| melting point | SMILES |
| --- | --- |
| 71 °C | O=C(O)CCCc1cccc(C(=O)c2ccccc2)c1 |
| 155 to 157 °C | O=C(O)c1ccccc1OCCCN1C(=O)c2ccccc2C1=O |
| 132 to 133 °C | COC1(C)CSC2C(NC(=O)Cc3ccccc3)C(=O)N2C1C(=O)OCC(Cl)(Cl)Cl (stereo not drawn) |
| 220 to 224 °C | O=c1nc(NCc2ccccc2)n2c3c1cnn3C(c1cccc(C(F)(F)F)c1)=CC2 |
| 89 °C | Nc1cnccc1N1CCc2ccccc21 |
| 71 to 72 °C | OCc1cncc(-c2ccccc2)c1 |
| 94 to 95 °C | O=C1c2ccccc2C(=O)N1CCNCCCO |
| 157 to 158 °C | O=C(NCC(O)c1ccccc1)c1ccc2n1Cc1ccccc1N(C(=O)COc1ccc(Cl)cc1)C2 (stereo not drawn) |
| 146 to 147 °C | CC(=O)NCCn1ccc2c1-c1c(Cl)cccc1CC2 |
| 229 °C | CCc1ccccc1NC=C1C(=O)N(c2cccc(NC(=O)OC)c2)N=C1C |
| 81 to 82 °C | CSC1Oc2ccccc2C1=O (stereo not drawn) |
| 144 to 146 °C | O=[N+]([O-])c1ccc2c(c1)CC(O)c1ccccc1S2 (stereo not drawn) |
| 253 to 255 °C | O=c1[nH]c2ccc(C(F)(F)F)cc2c(-c2cc(Cl)ccc2O)c1CCO |
| 81 to 83 °C | CC(=O)C1COc2ccccc2C1=O (stereo not drawn) |
| 128 to 129 °C | O=c1cc(-c2ccccc2)oc2ccc(OCCCCCN3CCC(O)CC3)cc12 |
| 138 to 140 °C | CCCN(c1ccc(O)c(Cl)c1)S(=O)(=O)c1ccc(O)cc1 |
| 160 to 164 °C | CC(C)C[C@@H](CO)NC(=O)N1C(=O)C(OC(=O)N2CCN(c3ccncc3)CC2)(c2ccccc2OC(C)C)c2cc(Cl)ccc21 (stereo partly drawn) |
| 140 to 141 °C | CC(=O)OCCn1ccc(=O)c(O)c1Cc1ccccc1 |
| 89 to 90 °C | COC=C(C(=O)OC)N(C)c1cccc(-c2ccccc2)n1 |
| 159 to 160 °C | Cc1ccc(-c2ccc3c(=O)ccoc3c2)cc1 |
| 175 to 177 °C | CN1C(=O)N(c2cc(Cl)cc(Cl)c2)C(=O)[C@]12CNC[C@H]2c1ccc(C#N)cc1 |
| 177 to 179 °C | CCC1(c2ccccc2)Cc2cc(O)c(Cl)c(Cl)c2C1=O (stereo not drawn) |
| 106 to 107 °C | Cn1nc(COc2ccc(CCCC#N)cc2)nc1-c1ccccc1 |

| melting point | SMILES |
| --- | --- |
| 110 to 113 °C | Cc1ccc(C)c(-c2c(C)ccc(C)c2O)c1O |
| 168 to 172 °C | CC(CO)N=C(c1ccccc1)c1cc(Cl)ccc1NC(=O)CN (stereo not drawn) |
| 160 to 161 °C | O=C(Oc1ccccc1)N1CCC(S(=O)(=O)c2ccccc2F)CC1 |
| 180 to 182 °C | CCCSc1ncc(C(=O)N[C@@H](Cc2ccc(O)cc2)C(=O)OC)n1Cc1ccccc1Cl |
| 191 to 192 °C | O=C(O)c1ccc(-c2ccc(Cl)cc2)cc1 |
| 177 to 178 °C | COc1ccc(-c2cc(O)ccc2-c2ncnc(-c3ccccc3)n2)cc1 |
| 174 to 175 °C | Cc1nc(C)c(Cn2nnnc2-c2cccc(Cl)c2Cl)s1 |
| 100 to 105 °C | Cc1cc(Oc2nc(-c3ccccc3)ns2)c(C)cc1N=CN(C)C |
| 288 to 290 °C | O=C(O)c1ccc2nc3n(c(=O)c2c1)CCCC3=Cc1ccccc1 |
| 152 to 153 °C | COc1ccc(Cn2c(=O)ccc3c(C)nc(N4CCC[C@H]4CO)nc32)cc1Cl |
| 218 to 220 °C | CC(C)Cn1c(CN)c(-c2ccccc2)c2cc(SCC(N)=O)ccc2c1=O |
| 142 to 144 °C | CCCCCCNc1cccc2c1C(=O)c1cccc(NCCCCCC)c1C2=O |
| 90 to 92 °C | CCc1cc2c(cc1CC)C(=O)C(Cl)=CC2=O |
| 130 °C | N#Cc1ccc(OCc2ccccc2)cc1O |
| 120 to 123 °C | CCC(=O)c1cc(OCc2ccccc2)c(OC)cc1[N+](=O)[O-] |
| 205 to 206 °C | CN1C(=O)C(NC(=O)OC(C)(C)C)CC(=O)c2ccccc21 (stereo not drawn) |
| 142 to 144 °C | COC1=CC(Cl)(OC)NC(C(=O)CC(=O)Nc2ccccc2)=N1 (stereo not drawn) |
| 199 to 201 °C | CC1=CC(c2ccc(Cl)c(Cl)c2)C2=C(CCCC2=O)N1 (stereo not drawn) |
| 109 to 110 °C | Cc1cn(C(C)C(=O)N(C)C)nc1-c1ccc(Cl)c(Cl)c1 (stereo not drawn) |
| > 270 °C | O=c1[nH]c2cc(Cl)ccc2c(O)c1Sc1nc2ccccc2s1 |
| 160 to 161 °C | CC(C)C(=O)n1cc(-c2ccc(Oc3ccccc3)cc2)c2c(N)ncnc21 |
| 157 to 158 °C | O=C(O)c1cc(Cl)ccc1NC(=O)C(CS)Cc1ccccc1 (stereo not drawn) |
| > 280 °C | O=C1N=c2ccc(C3(c4nc5ccc(-c6ccccc6)cc5[nH]4)N=c4ccccc4=N3)cc2=NC1=O |

The remaining lines, values behind:

| SMILES | melting point |
| --- | --- |
| COc1cccc(NC(=O)C(C)Oc2ccc(Oc3ccc(C#N)cc3)cc2)c1 (stereo not drawn) | 118 to 120 °C |
| CC1(C)CC(=O)C2=C(C1)NC1=C(C(=O)CC(C)(C)C1)C2c1ccc(OC(F)(F)F)cc1 | 234 °C |
| COC(=O)C(C)(C)n1nnc2ccc(Oc3cc(F)c(C(F)(F)F)c(Cl)c3)cc21 | 76.8 to 80 °C |
| COc1cc2ncnc(Nc3ccc(F)c(Cl)c3)c2cc1OCCCC1OCCO1 | 170 to 171 °C |
| COC(=O)c1nsc2ccc(-n3c(=O)cc(C(F)(F)F)n(C)c3=O)cc12 | 153 to 156 °C |
| Nc1c(Cl)cc2nc(O)c(O)nc2c1N | > 300 °C |
| COc1ccc(C=O)c(OC)c1I | 103 °C |
| COc1c(Cl)ccc(Cl)c1C(=O)NO | 150 °C |
| O=CN1CCC(c2nn(-c3ccc(C(F)(F)F)cc3)c3cc(F)ccc23)CC1 | 142 to 144 °C |
| Cc1cc(C)c2c(c1Br)CCC2=O | 103 °C |
| O=C(Cl)N1CCCCCCCCCCCNC1=O | 65 to 67 °C |
| Cc1ccc(S(=O)(=O)N2[C@H](CCCc3nc(C)no3)CC[C@@H]2c2ccc(F)cc2)cc1 (racemic) | 91 °C |
| OC(=S)CCc1ccc(F)cc1 | 68 to 69 °C |
| Cn1c(C(F)(F)F)cc(=O)n(-c2cc(Oc3ccc4cc(O)ccc4c3)c(C#N)cc2F)c1=O | 174 °C |
| CCCCCCCCCCCCCCCc1cccc(OCC)c1C1NC(=O)NC(C)=C1C(=O)OC (stereo not drawn) | 127 to 129 °C |
| CC(c1cccs1)N(O)C(N)=O (stereo not drawn) | 130 °C |
| Cn1c(S)nc(-c2ccncc2)cc1=O | 250 to 252 °C |
| Nc1cc2c(cc1N)OC(F)(Cl)C(F)(Cl)O2 (stereo not drawn) | 130 to 131 °C |
| NC(=O)c1ccc(CCBr)cc1 | 152 to 153 °C |

| SMILES | melting point |
| --- | --- |
| CCCCCCCCCCOc1cc(OCCCCCCCCCC)cc(N(CC(=O)O)CC(=O)OC)c1 | 61 to 62 °C |
| N#Cc1nn(-c2c(Cl)cc(C(F)(F)F)cc2Cl)c(N)c1-c1ccsc1 | 210 to 212 °C |
| CSc1ccc(-c2nnc(Oc3ccc(F)cc3F)cc2-c2ccc(Cl)cc2)cc1 | 163 to 164 °C |
| CNC(=S)SCCC(=O)O | 86 to 87 °C |
| C=Cc1ccc(S(=O)(=O)Nc2ncnc(OCCO)c2Cc2c(OC)cccc2OC)cc1 | 138 to 139 °C |
| Cc1cc(C2=NOC(c3cc(Cl)cc(Cl)c3)(C(F)(F)F)C2O)ccc1C(=O)O (stereo not drawn) | 215 to 217 °C |
| NNC(=O)C(CC1CC2CCN1CC2)(c1ccccc1)c1ccccc1 (stereo not drawn) | 158 to 160 °C |
| Cc1ccc(S(=O)(=O)NC(=O)CC(=O)O)cc1 | 80 °C |
| O=C(OCC1CC1)c1ccc(OCCC2CCN(c3ccc(Cl)nn3)CC2)cc1 | 134 °C |
| CCc1cc(=O)c2c([nH]1)CCCC2 | 133 to 137 °C |
| CC1CC2C3CCC4=CC(=O)C=CC4(C)C3=CCC2(C)C1C(=O)CN1CCN(c2cc(NC3CCCC3)nc(NC3CCCC3)n2)CC1 (stereo not drawn) | 180 to 185 °C |
| CC(C)[Si](C)(C)CCSCCNC(=O)n1cc(F)c(=O)[nH]c1=O | 85 to 86 °C |
| Cc1cc(N2C=CNC2N)ccn1 (stereo not drawn) | 167 °C |
| COc1cc(C)c(NS(C)(=O)=O)cc1C(=O)NCC1CCCO1 (stereo not drawn) | 207 to 208 °C |
| COC(C)c1cc2c(=O)n(NS(C)(=O)=O)c(=O)[nH]c2cc1C(F)(F)F (stereo not drawn) | 233 to 236 °C |
| CC(C)C[C@@H](C=O)NC(=O)[C@H](Cc1c[nH]cn1)NC(=O)[C@H](Cc1ccccc1)NC(=O)CCSSc1ncccc1[N+](=O)[O-] ([Mpa](Npys)FHL-aldehyde) | 101 to 105 °C |
| O=[N+]([O-])c1ccc2c(ccn2Cc2ccncc2)c1 | 134 to 136 °C |
| O=C1N=C(N2CCOCC2)SC1=Cc1ccc(OC(F)(F)F)c(-c2cc(F)c(O)c(C34CC5CC(CC(C5)C3)C4)c2)c1 | 238 °C |
| O=C(NCc1cocn1)c1cc(-n2cnn(Cc3ccc(F)cc3)c2=O)n[nH]1 | 267 to 268 °C |

| SMILES | melting point |
| --- | --- |
| O=C1C(=O)N(Cc2ccc([N+](=O)[O-])cc2)CCN1Cc1ccc([N+](=O)[O-])cc1 | 257 to 260 °C |
| CN1CCc2c(sc3ncn(CCO)c(=O)c23)C1 | 163 to 165 °C |
| CC(=O)N1CCN(c2cncc(Cl)n2)CC1 | 106 to 108 °C |
| COc1cc(C)c(Br)cc1C | 38.4 °C |
| CN1CCN(C(=O)[C@H](CCC(N)=O)NC(=O)CCc2ccc(OCc3ccccc3)cc2OCc2ccccc2)CC1 | 120 to 122 °C |
| O=C(CCN1CCN(c2cccc(Cl)c2)CC1)N1CC2CC3CC(C2)CC1C3 | 110 to 112 °C |
| COC(=O)COc1ccc(OCC2CCN(c3ccncc3)CC2)cc1 | 127 to 129 °C |
| O=C(Nc1ccc(-n2nc(C(F)(F)F)cc2C(F)(F)F)cc1)c1ccc(F)cc1C(F)(F)F | 178 to 179 °C |
| CCC(C(=O)c1ccc(Cl)cc1)n1ncn(-c2ccc(N3CCN(c4ccc(O)cc4)CC3)cn2)c1=O (stereo not drawn) | 186 °C |
| CCOC(=Cc1ccncc1)C(C)=O | 84 to 88 °C |
| COC(=O)Nc1nn2cccc2c(=O)[nH]1 | 232 °C |
| Cc1c(C)c2c(c(C)c1NC(=O)C(O)C(C)(C)C)C(c1ccc(C(C)C)cc1)CO2 (stereo not drawn) | 165 to 166 °C |
| O=C(Nc1ccc2ccc(Cl)nc2n1)c1ccc(C(F)(F)F)cc1 | 236 °C |
| CSCS[C@H](C)[C@](O)(Cn1cncn1)c1ccc(F)cc1F | 108 to 109 °C |
| CCOP(=O)(CCCOn1cnc2c(Cl)nc(NC=O)nc21)OCC | 121 to 124 °C |
| O=C(O)C1CCN(C(=O)c2ccccc2SSc2ccccc2C(=O)N2CCC(C(=O)O)CC2)CC1 | > 250 °C |
| COC(=O)[C@H](CO)NC(=O)c1ncn2c1CN(C)C(=O)c1sccc1-2 | 158 to 160 °C |
| C=C1CCc2[nH]c3c(c2C1=O)CCC3 | 214 to 215 °C |
| COc1c2c(cc3c1OCO3)C(=O)CN(C)C2 | 116 to 119 °C |
